Target: T1, Human CaV2.2 channels (Homo sapiens, UniProt Q00975)
T1 construct: expressed in transfected cells
Assay: Fluorescent assay for CaV2.2 channels using potassium depolarization to induce channel opening (FLIPR, Fluo-4)
Type: cell-based
Settings: 3 μM test compound, 30 mM KCl, HEK293 cells stably expressing human CaV2.2; read-out: %-Inhib (CaV2.2) @3 μM @30 mM KCl
Procedure, shortened: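 HEK293 cells stably co-expressing CaV2.2 with α2δ and β subunits plus Kir2.3 were Fluo-4 loaded, then preincubated 15 min at 25 °C with compound in 30 mM KCl buffer, pH 7.4. Depolarization was by adding buffer containing 210 mM KCl. Inhibition was taken from baseline-normalized peak fluorescence amplitude (ex 480/em 535 nm).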

T1 sequence (Q00975 whole entry): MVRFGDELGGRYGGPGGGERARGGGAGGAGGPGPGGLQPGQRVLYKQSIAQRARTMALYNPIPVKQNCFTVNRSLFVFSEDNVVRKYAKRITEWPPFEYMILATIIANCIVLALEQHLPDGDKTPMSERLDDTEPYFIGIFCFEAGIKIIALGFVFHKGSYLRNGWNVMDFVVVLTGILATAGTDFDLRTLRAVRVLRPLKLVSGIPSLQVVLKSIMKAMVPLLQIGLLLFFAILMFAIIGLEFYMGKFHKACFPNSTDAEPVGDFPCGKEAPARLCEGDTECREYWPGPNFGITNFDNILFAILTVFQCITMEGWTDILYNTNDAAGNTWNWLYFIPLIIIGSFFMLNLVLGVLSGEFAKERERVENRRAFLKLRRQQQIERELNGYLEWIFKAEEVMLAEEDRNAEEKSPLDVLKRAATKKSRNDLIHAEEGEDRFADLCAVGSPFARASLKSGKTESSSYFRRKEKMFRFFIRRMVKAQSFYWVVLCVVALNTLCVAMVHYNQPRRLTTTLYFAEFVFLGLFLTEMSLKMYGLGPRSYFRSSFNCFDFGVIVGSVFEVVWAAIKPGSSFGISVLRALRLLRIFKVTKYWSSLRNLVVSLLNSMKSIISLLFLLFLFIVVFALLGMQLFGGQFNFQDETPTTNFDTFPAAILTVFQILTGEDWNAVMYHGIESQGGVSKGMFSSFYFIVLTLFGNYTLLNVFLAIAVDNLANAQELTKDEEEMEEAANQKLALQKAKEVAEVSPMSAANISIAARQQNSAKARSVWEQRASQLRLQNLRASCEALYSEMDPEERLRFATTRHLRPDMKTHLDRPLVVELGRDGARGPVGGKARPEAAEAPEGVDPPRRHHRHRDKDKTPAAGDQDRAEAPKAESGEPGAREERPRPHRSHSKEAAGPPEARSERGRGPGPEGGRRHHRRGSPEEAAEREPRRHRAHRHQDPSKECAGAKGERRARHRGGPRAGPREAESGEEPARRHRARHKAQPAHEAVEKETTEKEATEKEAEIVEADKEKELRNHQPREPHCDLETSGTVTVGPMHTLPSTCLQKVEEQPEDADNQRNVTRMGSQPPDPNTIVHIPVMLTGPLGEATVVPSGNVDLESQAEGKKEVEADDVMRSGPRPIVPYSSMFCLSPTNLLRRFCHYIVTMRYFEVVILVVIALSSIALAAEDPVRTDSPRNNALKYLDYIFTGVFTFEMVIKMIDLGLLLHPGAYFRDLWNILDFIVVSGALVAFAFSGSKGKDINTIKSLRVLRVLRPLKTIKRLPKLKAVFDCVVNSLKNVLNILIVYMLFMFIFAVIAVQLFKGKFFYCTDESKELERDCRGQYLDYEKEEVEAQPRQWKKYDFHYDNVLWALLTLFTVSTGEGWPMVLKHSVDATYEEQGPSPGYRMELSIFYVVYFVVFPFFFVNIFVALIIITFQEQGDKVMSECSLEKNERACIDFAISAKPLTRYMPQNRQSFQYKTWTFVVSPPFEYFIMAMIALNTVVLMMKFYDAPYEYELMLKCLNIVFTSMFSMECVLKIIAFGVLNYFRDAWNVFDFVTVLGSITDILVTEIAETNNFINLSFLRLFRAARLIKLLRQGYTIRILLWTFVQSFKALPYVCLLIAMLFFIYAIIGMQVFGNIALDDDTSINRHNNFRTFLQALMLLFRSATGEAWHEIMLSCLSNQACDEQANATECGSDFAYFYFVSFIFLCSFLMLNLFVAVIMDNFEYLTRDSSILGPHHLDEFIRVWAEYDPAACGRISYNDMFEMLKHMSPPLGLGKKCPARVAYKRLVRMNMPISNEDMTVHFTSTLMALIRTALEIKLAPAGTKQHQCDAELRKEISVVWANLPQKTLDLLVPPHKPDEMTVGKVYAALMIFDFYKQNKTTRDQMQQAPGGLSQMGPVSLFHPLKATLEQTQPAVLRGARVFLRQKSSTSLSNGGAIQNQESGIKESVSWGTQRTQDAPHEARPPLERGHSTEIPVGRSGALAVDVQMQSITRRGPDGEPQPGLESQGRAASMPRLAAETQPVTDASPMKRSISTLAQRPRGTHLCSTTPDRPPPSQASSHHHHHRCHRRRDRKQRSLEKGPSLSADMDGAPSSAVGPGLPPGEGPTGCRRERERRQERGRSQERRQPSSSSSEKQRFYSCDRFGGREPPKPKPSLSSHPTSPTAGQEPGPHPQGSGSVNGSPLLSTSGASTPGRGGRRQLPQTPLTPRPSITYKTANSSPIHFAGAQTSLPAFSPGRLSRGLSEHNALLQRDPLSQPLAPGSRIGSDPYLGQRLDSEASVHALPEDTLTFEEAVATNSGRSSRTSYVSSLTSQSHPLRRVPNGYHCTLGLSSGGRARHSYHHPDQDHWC
T1 sequence (P54289 25-1103, further chain): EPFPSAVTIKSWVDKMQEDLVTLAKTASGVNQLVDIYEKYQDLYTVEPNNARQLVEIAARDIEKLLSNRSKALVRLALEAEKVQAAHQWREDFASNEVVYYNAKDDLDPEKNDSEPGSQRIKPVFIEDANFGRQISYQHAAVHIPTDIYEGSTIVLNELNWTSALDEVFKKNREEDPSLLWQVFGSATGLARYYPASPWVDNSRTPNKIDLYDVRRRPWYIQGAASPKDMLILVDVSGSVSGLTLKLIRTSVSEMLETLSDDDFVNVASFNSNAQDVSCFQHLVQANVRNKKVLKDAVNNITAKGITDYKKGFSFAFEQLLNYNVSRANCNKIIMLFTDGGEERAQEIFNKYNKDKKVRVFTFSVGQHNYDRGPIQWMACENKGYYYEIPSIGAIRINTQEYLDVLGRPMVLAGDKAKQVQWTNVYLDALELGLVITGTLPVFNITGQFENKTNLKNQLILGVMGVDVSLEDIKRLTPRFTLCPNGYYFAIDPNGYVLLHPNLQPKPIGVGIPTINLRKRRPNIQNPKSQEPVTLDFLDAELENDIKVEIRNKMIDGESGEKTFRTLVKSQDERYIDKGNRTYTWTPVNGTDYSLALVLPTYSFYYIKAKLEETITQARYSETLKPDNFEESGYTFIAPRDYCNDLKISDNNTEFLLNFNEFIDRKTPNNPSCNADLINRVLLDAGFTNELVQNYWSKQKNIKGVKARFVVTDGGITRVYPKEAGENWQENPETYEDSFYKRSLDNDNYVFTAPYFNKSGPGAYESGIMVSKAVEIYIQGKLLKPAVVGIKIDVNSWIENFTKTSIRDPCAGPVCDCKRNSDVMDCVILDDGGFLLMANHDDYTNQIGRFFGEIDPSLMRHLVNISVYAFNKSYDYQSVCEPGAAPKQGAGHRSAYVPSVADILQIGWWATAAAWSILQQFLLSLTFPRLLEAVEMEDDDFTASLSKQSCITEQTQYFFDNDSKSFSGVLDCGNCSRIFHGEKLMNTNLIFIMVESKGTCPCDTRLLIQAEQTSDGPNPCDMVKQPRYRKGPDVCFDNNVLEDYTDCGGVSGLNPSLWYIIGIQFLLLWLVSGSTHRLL
T1 sequence (P54284 whole entry, further chain): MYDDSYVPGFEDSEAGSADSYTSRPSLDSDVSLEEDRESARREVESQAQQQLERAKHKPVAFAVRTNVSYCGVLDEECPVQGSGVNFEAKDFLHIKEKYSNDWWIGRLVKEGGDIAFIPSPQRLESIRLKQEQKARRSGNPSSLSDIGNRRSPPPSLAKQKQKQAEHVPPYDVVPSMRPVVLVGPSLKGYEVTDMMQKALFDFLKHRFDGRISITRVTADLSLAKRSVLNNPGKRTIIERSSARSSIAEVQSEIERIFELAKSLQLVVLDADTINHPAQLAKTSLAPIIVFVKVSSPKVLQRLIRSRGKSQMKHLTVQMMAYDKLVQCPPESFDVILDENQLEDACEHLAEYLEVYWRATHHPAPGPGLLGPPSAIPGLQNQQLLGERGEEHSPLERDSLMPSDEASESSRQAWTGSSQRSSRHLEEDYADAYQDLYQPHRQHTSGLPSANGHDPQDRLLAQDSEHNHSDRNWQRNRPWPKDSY

SMILES	inhibition at 3 µM [%]
Cc1c(-c2ccc(Cl)cc2F)c(C(=O)NC2CC2)n(Cc2ccccc2)c1C(F)(F)F [SC-172, 1-Benzyl-3-(4-chloro-2-fluoro-phenyl)-N-cyclopropyl-4-methyl-5-(trifluoromethyl)-1H-pyrrole-2-carboxylic acid amide]	75 to 95
Cc1c(-c2ccc(Cl)cc2F)c(C(=O)N2CCS(=O)(=O)CC2)n(Cc2ccccc2)c1C(F)(F)F [SC-173, [1-Benzyl-3-(4-chloro-2-fluoro-phenyl)-4-methyl-5-(trifluoromethyl)-1H-pyrrol-2-yl]-(1,1-dioxo-[1,4]thiazinan-4-yl)-methanone]	> 95
CN(CC(C)(C)C(N)=O)C(=O)c1c(-c2ccc(Cl)cc2)cc(C(F)(F)F)n1Cc1ccccc1 [SC-174, 1-Benzyl-N-(2-carbamoyl-2-methyl-propyl)-3-(4-chlorophenyl)-N-methyl-5-(trifluoromethyl)-1H-pyrrole-2-carboxylic acid amide]	> 95
CN(CCC(C)(C)O)C(=O)c1c(-c2ccc(Cl)cc2)cc(C(F)(F)F)n1Cc1ccccc1 [SC-176, 1-Benzyl-3-(4-chlorophenyl)-N-(3-hydroxy-3-methyl-butyl)-N-methyl-5-(trifluoromethyl)-1H-pyrrole-2-carboxylic acid amide]	> 95
CC(C)(CO)CNC(=O)c1c(-c2ccc(Cl)cc2)cc(C(F)(F)F)n1Cc1ccccc1 [SC-177, 1-Benzyl-3-(4-chlorophenyl)-N-(3-hydroxy-2,2-dimethyl-propyl)-5-(trifluoromethyl)-1H-pyrrole-2-carboxylic acid amide]	> 95
CN(CC1(CO)CC1)C(=O)c1c(-c2ccc(Cl)cc2)cc(C(F)(F)F)n1Cc1ccccc1 [SC-178, 1-Benzyl-3-(4-chlorophenyl)-N-[[1-(hydroxymethyl)-cyclopropyl]-methyl]-N-methyl-5-(trifluoromethyl)-1H-pyrrole-2-carboxylic acid amide]	> 95
CN(CC1(CO)CCC1)C(=O)c1c(-c2ccc(Cl)cc2)cc(C(F)(F)F)n1Cc1ccccc1 [SC-179, 1-Benzyl-3-(4-chlorophenyl)-N-[[1-(hydroxymethyl)-cyclobutyl]-methyl]-N-methyl-5-(trifluoromethyl)-1H-pyrrole-2-carboxylic acid amide]	> 95
CN(CC(C)(C)CN1CCOCC1)C(=O)c1c(-c2ccc(Cl)cc2)cc(C(F)(F)F)n1Cc1ccccc1 [SC-180, 1-Benzyl-3-(4-chlorophenyl)-N-(2,2-dimethyl-3-morpholin-4-yl-propyl)-N-methyl-5-(trifluoromethyl)-1H-pyrrole-2-carboxylic acid amide]	75 to 95
O=C(c1c(-c2ccc(Cl)cc2)cc(C(F)(F)F)n1Cc1ccccc1)N1CCC(CO)C1 (stereo not drawn) [SC-181, [1-Benzyl-3-(4-chlorophenyl)-5-(trifluoromethyl)-1H-pyrrol-2-yl]-[3-(hydroxymethyl)-pyrrolidin-1-yl]-methanone]	75 to 95
CN(CC1CCOC1)C(=O)c1c(-c2ccc(Cl)cc2)cc(C(F)(F)F)n1Cc1ccccc1 (stereo not drawn) [SC-182, 1-Benzyl-3-(4-chlorophenyl)-N-methyl-N-(tetrahydro-furan-3-yl-methyl)-5-(trifluoromethyl)-1H-pyrrole-2-carboxylic acid amide]	> 95
CN(CC(C)(CO)CO)C(=O)c1c(-c2ccc(Cl)cc2)cc(C(F)(F)F)n1Cc1ccccc1 [SC-183, 1-Benzyl-3-(4-chlorophenyl)-N-[3-hydroxy-2-(hydroxymethyl)-2-methyl-propyl]-N-methyl-5-(trifluoromethyl)-1H-pyrrole-2-carboxylic acid amide]	> 95
CN(C(=O)c1c(-c2ccc(Cl)cc2)cc(C(F)(F)F)n1Cc1ccccc1)C(C)(C)CCO [SC-184, 1-Benzyl-3-(4-chlorophenyl)-N-(3-hydroxy-1,1-dimethyl-propyl)-N-methyl-5-(trifluoromethyl)-1H-pyrrole-2-carboxylic acid amide]	75 to 95
CS(=O)(=O)C1CCN(C(=O)c2c(-c3ccc(Cl)cc3)cc(C(F)(F)F)n2Cc2ccccc2)C1 (stereo not drawn) [SC-185, [1-Benzyl-3-(4-chlorophenyl)-5-(trifluoromethyl)-1H-pyrrol-2-yl]-(3-methylsulfonyl-pyrrolidin-1-yl)-methanone]	> 95
CN(C(=O)c1c(-c2ccc(Cl)cc2)cc(C(F)(F)F)n1Cc1ccccc1)C(CO)C(C)(C)C (stereo not drawn) [SC-186, 1-Benzyl-3-(4-chlorophenyl)-N-[1-(hydroxymethyl)-2,2-dimethyl-propyl]-N-methyl-5-(trifluoromethyl)-1H-pyrrole-2-carboxylic acid amide]	> 95
CN(CC(C)(C)C#N)C(=O)c1c(-c2ccc(Cl)cc2)cc(C(F)(F)F)n1Cc1ccccc1 [SC-187, 1-Benzyl-3-(4-chlorophenyl)-N-(2-cyano-2-methyl-propyl)-N-methyl-5-(trifluoromethyl)-1H-pyrrole-2-carboxylic acid amide]	> 95
CN(CC(C)(C)CN)C(=O)c1c(-c2ccc(Cl)cc2)cc(C(F)(F)F)n1Cc1ccccc1 [SC-188, N-(3-Amino-2,2-dimethyl-propyl)-1-benzyl-3-(4-chlorophenyl)-N-methyl-5-(trifluoromethyl)-1H-pyrrole-2-carboxylic acid amide]	75 to 95
CN(CCCS(C)(=O)=O)C(=O)c1c(-c2ccc(Cl)cc2)cc(C(F)(F)F)n1Cc1ccccc1 [SC-189, 1-Benzyl-3-(4-chlorophenyl)-N-methyl-N-(3-methylsulfonyl-propyl)-5-(trifluoromethyl)-1H-pyrrole-2-carboxylic acid amide]	> 95
CCN(CCS(C)(=O)=O)C(=O)c1c(-c2ccc(Cl)cc2)cc(C(F)(F)F)n1Cc1ccccc1 [SC-190, 1-Benzyl-3-(4-chlorophenyl)-N-ethyl-N-(2-methylsulfonyl-ethyl)-5-(trifluoromethyl)-1H-pyrrole-2-carboxylic acid amide]	> 95
CS(=O)(=O)CCNC(=O)c1c(-c2ccc(Cl)cc2)cc(C(F)(F)F)n1Cc1ccccc1 [SC-191, 1-Benzyl-3-(4-chlorophenyl)-N-(2-methylsulfonyl-ethyl)-5-(trifluoromethyl)-1H-pyrrole-2-carboxylic acid amide]	75 to 95
CCS(=O)(=O)CCN(C)C(=O)c1c(-c2ccc(Cl)cc2)cc(C(F)(F)F)n1Cc1ccccc1 [SC-192, 1-Benzyl-3-(4-chlorophenyl)-N-[2-(ethylsulfonyl)-ethyl]-N-methyl-5-(trifluoromethyl)-1H-pyrrole-2-carboxylic acid amide]	> 95
CN(C(=O)c1c(-c2ccc(Cl)cc2)cc(C(F)(F)F)n1Cc1ccccc1)C1CCS(=O)(=O)CC1 [SC-193, 1-Benzyl-3-(4-chlorophenyl)-N-(1,1-dioxo-thian-4-yl)-N-methyl-5-(trifluoromethyl)-1H-pyrrole-2-carboxylic acid amide]	> 95
CC(C)S(=O)(=O)CCN(C)C(=O)c1c(-c2ccc(Cl)cc2)cc(C(F)(F)F)n1Cc1ccccc1 [SC-194, 1-Benzyl-3-(4-chlorophenyl)-N-[2-(isopropylsulfonyl)-ethyl]-N-methyl-5-(trifluoromethyl)-1H-pyrrole-2-carboxylic acid amide]	> 95
CN(CCC1CCCO1)C(=O)c1c(-c2ccc(Cl)cc2)cc(C(F)(F)F)n1Cc1ccccc1 (stereo not drawn) [SC-195, 1-Benzyl-3-(4-chlorophenyl)-N-methyl-N-(2-tetrahydro-furan-2-yl-ethyl)-5-(trifluoromethyl)-1H-pyrrole-2-carboxylic acid amide]	> 95
O=C(c1c(-c2ccc(Cl)cc2)cc(C(F)(F)F)n1Cc1ccccc1)N1CCS(=O)(=O)CC1 [SC-196, [1-Benzyl-3-(4-chlorophenyl)-5-(trifluoromethyl)-1H-pyrrol-2-yl]-(1,1-dioxo-[1,4]thiazinan-4-yl)-methanone]	> 95
CN(CC1CCCO1)C(=O)c1c(-c2ccc(Cl)cc2)cc(C(F)(F)F)n1Cc1ccccc1 (stereo not drawn) [SC-197, 1-Benzyl-3-(4-chlorophenyl)-N-methyl-N-(tetrahydro-furan-2-yl-methyl)-5-(trifluoromethyl)-1H-pyrrole-2-carboxylic acid amide]	> 95
CC(CS(C)(=O)=O)N(C)C(=O)c1c(-c2ccc(Cl)cc2)cc(C(F)(F)F)n1Cc1ccccc1 (stereo not drawn) [SC-198, 1-Benzyl-3-(4-chlorophenyl)-N-methyl-N-(1-methyl-2-methylsulfonyl-ethyl)-5-(trifluoromethyl)-1H-pyrrole-2-carboxylic acid amide]	> 95
CN(CC1CCC[C@@H]1O)C(=O)c1c(-c2ccc(Cl)cc2)cc(C(F)(F)F)n1Cc1ccccc1 (stereo partly drawn) [SC-199, 1-Benzyl-3-(4-chlorophenyl)-N-[[(2S)-2-hydroxy-cyclopentyl]-methyl]-N-methyl-5-(trifluoromethyl)-1H-pyrrole-2-carboxylic acid amide]	> 95
CN(CC1CCC[C@H]1O)C(=O)c1c(-c2ccc(Cl)cc2)cc(C(F)(F)F)n1Cc1ccccc1 (stereo partly drawn) [SC-200, 1-Benzyl-3-(4-chlorophenyl)-N-[[(2R)-2-hydroxy-cyclopentyl]-methyl]-N-methyl-5-(trifluoromethyl)-1H-pyrrole-2-carboxylic acid amide]	> 95
CS(=O)(=O)C1CN(C(=O)c2c(-c3ccc(Cl)cc3)cc(C(F)(F)F)n2Cc2ccccc2)C1 [SC-201, [1-Benzyl-3-(4-chlorophenyl)-5-(trifluoromethyl)-1H-pyrrol-2-yl]-(3-methylsulfonyl-azetidin-1-yl)-methanone]	75 to 95
CN(CC1CCCCO1)C(=O)c1c(-c2ccc(Cl)cc2)cc(C(F)(F)F)n1Cc1ccccc1 (stereo not drawn) [SC-202, 1-Benzyl-3-(4-chlorophenyl)-N-methyl-N-(tetrahydro-pyran-2-yl-methyl)-5-(trifluoromethyl)-1H-pyrrole-2-carboxylic acid amide]	75 to 95

Reference: US9302988B2, “Fluoromethyl-substituted pyrrole carboxamides” (GRÜNENTHAL GMBH, priority 2012, dated 2016)
